In patent publication US20220249415A1, “COMPOSITION OF AZELAIC ACID HAVING ADIPOSE TRIGLYCERIDE HYDROLYSIS EFFECT” (Korea University Research and Business Foundation, priority 2018, published 2022):
“Also recorded” adds a separate entry of the source.

Assays:
ob/ob mice = test: Anti-obesity effect, oral administration to genetically obesity-induced ob/ob mice; assay type: in vivo, mouse; settings: 50 mg/kg oral
Protocol: After orally administering azelaic acid to an ob/ob mouse (Samtako, Seoul, Korea) corresponding to a genetically obesity-induced mouse at a concentration of 50 mg/kg, a degree of obesity thereof was compared with that of a control group to which azelaic acid was not administered. More specifically, an increase in body weight, a feed intake amount, body fat, blood indices, blood lipid indices, a weight of liver tissue, ALT and AST corresponding to hepatotoxicity indices, and energy metabolism were analyzed. Changes in body weight in azelaic acid administration group and a control group were observed once a week for an experiment period of 6 weeks. Body fats (total fat, subcutaneous fat, and abdominal fat) of mice in the azelaic acid administration group to which azelaic acid was orally administered for 6 weeks and a control group were measured through micro CT image analysis. The subcutaneous fat was quantified for the entire site of the mouse, and the abdominal fat was calculated by quantifying an amount of abdominal fat at the 15th to 20th lumbar spine sites of the mouse. In order to evaluate an effect on mouse lipid metabolism of azelaic acid in the administration group to which azelaic acid was orally administered for 6 weeks and the control group, concentrations of blood triglycerides, adiponectin, and cholesterol were measured. Weights of the liver tissue, ALT, and AST of the mice in the azelaic acid administration group to which azelaic acid was orally administered for 6 weeks and the control group were measured.

normal mice = test: Energy metabolism by indirect calorimetry in normal mice; assay type: in vivo, mouse; settings: 50 mg/kg oral, 6 weeks
Description: Relative metabolic rates were confirmed by measuring consumption amount of O2 and production amounts of CO2 of an azelaic acid administration group and a control group using indirect calorimetry.

OR2K2 = target: T1, OR2K2 (Homo sapiens, UniProt Q8NGT1); test: siRNA knock-down of OR2K2 in HepG2 cells, fatty acid oxidation-related gene expression; assay type: cell-based
T1 construct: endogenous in cells; host or cells: HepG2
T1 sequence (Q8NGT1 1-316): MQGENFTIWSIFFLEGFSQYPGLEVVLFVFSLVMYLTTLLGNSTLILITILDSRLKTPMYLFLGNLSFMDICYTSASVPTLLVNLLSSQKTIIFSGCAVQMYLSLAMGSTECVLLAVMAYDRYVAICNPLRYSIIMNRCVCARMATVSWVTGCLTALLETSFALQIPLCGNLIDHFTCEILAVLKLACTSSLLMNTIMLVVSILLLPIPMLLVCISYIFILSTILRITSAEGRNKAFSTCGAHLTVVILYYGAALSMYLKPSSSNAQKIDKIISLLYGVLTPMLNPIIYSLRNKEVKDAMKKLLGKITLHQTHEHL
Description: The gene expression of OR1E1, OR1K1, OR2K2, OR2S2, OR13C5, and OR51E2, corresponding to the top 6 receptors among 10 human olfactory receptors selected to be expressed in both adipose tissue and liver tissue while interacting with azelaic acid, was knocked down with siRNA in human-derived liver cell and adipocyte lines, namely HepG2 cells and hAMSC cells, respectively. Here, siRNAs that were used were OR1E2 siRNA (sc-93932), OR1K2 (sc-92810), OR2K2 (sc-92852), OR2S2 (sc-92505), OR13C5 (sc-92899), and OR51E2 (sc-76265), purchased from Santa Cruz Biotechnology Inc. (Dallas, Tx USA).
After knock-down treatment, the cell lines were treated with azelaic acid, and triglyceride hydrolysis and fatty acid oxidation-related gene expression in HepG2 cells as a human-derived liver cell line and hAMSC cells as a human-derived adipocyte line were measured.

3T3-L1 adipocytes [1] = test: Glycerol release (triglyceride hydrolysis) from 3T3-L1 adipocytes; assay type: cell-based, mouse; settings: 50 μM azelaic acid, 2 hours
Protocol: Further, in order to confirm whether or not azelaic acid has an effect of hydrolyzing triglycerides, a release amount of glycerol corresponding to a product of triglyceride hydrolysis was measured.

3T3-L1 adipocytes [2] = test: MTT assay, cytotoxicity of azelaic acid; assay type: cell-based, mouse; settings: azelaic acid up to 500 μM, 24 hours
Protocol: In order to evaluate cytotoxicity of azelaic acid, MTT assay was performed.
The MTT assay is a test method using an ability of mitochondria reducing MTT tetrazolium, a yellow water-soluble substrate, to a blue purple water-insoluble MTT formazane […]. An MTT reagent was prepared by diluting C18H16BrN5S (Thiazoly Blue Tetrazolium Bromide) in phosphate buffered saline (PBS) at a concentration of 2 to 5 mg/ml.
First, after the 3T3-L1 adipocytes (4×10^5 cells/ml) were seeded in a 96-well plate and cultured at 37° C. under 5% CO2 conditions for 24 hours, the cultured 3T3-L1 adipocytes were treated with azelaic acid in a concentration range of 0 to 500 μM and cultured for 24 hours. After 100 μL of the MTT reagent was added to each test sample at a concentration of 4 mg/mL and cultured at 37° C. under 5% CO2 conditions for 4 hours, 100 μL of dimethyl sulfoxide (DMSO) was added thereto, and absorbance was measured at 540 nm. An absorbance value is to quantify an apoptotic effect due to toxicity using the principle that absorbance is in proportion to the number of living cells.

3T3-L1 adipocytes [3] = test: Western blot of phosphorylation of CREB and HSL in 3T3-L1 adipocytes; assay type: cell-based, mouse; settings: azelaic acid 50 μM, 2 hours, vs control
Description: When the PKA protein activity is increased by azelaic acid, phosphorylation of target proteins of PKA is increased. Therefore, phosphorylation of cAMP-response element binding protein (CREB) and hormone-sensitive lipase (HSL) known as target proteins of PKA was confirmed by a western blot experiment. […] Primary antibodies used in the experiment were anti-phospho-CREB and anti-phospho-HSL antibodies (Santa Cruz, Calif., U.S.).

3T3-L1 adipocytes [4] = test: Intracellular cholesterol concentration (Amplex Red kit) in 3T3-L1 adipocytes; assay type: cell-based, mouse; settings: azelaic acid 25 or 50 μM
Protocol: In order to confirm whether or not azelaic acid induces triglyceride hydrolysis in adipocytes by activating a cAMP-PKA-HSL signaling pathway, the adipocytes were directly treated with azelaic acid, and concentrations of intracellular lipids were measured. […] Then, a concentration of triglycerides was measured using a TG assay kit (BioVision, California, U.S.) and a concentration of cholesterol was measured using an Amplex Red cholesterol assay kit (Invitrogen, California, U.S.).

O=C(O)CCCCCCCC(=O)O [azelaic acid, nonanedioic acid]
concentration of blood cholesterol (ob/ob mice; 6 weeks): significantly decreased | concentration of blood triglyceride (ob/ob mice; 6 weeks): significantly decreased | weight of the liver tissue (ob/ob mice; 6 weeks): decreased | body weight (ob/ob mice; 6 weeks, on and after the first week, vs control group): significantly decreased | ALT (hepatotoxicity index) (ob/ob mice; 6 weeks, vs control group): no large difference | AST (hepatotoxicity index) (ob/ob mice; 6 weeks, vs control group): no large difference | abdominal fat (micro CT) (ob/ob mice; 6 weeks, vs control group): significantly decreased | subcutaneous fat (micro CT) (ob/ob mice; 6 weeks, vs control group): significantly decreased | total fat (micro CT) (ob/ob mice; 6 weeks, vs control group): significantly decreased | feed intake amount (ob/ob mice; final week, vs control group): no significant difference | consumption amount of O2 (normal mice; vs control): no large difference | fatty acid oxidation (normal mice; vs control): increased | respiratory quotient (RQ) (normal mice; vs control): decreased | total energy expenditure (EE) (normal mice; vs control): no change | production amount of CO2 (normal mice; vs control group): significantly increased | expression of fatty acid oxidation-related genes (PPARa, CTP1, Acox2) upon treatment with azelaic acid (OR2K2; HepG2 cells during knock-down of OR2K2): did not change | expression of fatty acid oxidation-related genes (PPARa, CTP1, Acox2), knocked-down group compared to control group (OR2K2; HepG2 cells, OR2K2 knock-down, upon treatment with azelaic acid): statistically significantly decreased | glycerol (product of triglyceride hydrolysis) increased as compared to the control (3T3-L1 adipocytes [1]): 46.7% | cytotoxicity (MTT assay) (3T3-L1 adipocytes [2]): cytotoxicity was not observed; also recorded: toxicity was not exhibited | phosphorylation of CREB (3T3-L1 adipocytes [3]): rapidly increased | phosphorylation of HSL (3T3-L1 adipocytes [3]): rapidly increased | concentration of intracellular cholesterol (3T3-L1 adipocytes [4]): no significant change
